Measurements: USRE37556E1, “Superoxide radical inhibitor” (Otsuka Pharmaceutical Co., Ltd., priority 1990, dated 2002)

Columns and labels:
[1] = tested on: human neutrophilic leukocytes; assay: Inhibition of superoxide radical (O2-) generation in FMLP-stimulated human neutrophilic leukocytes (ferricytochrome C method); assay type: cell-based
Text: (1) Activity for inhibiting the generation of superoxide radical (O2^−) in human neutrophilic leukocytes
That is, a whole blood obtained from a healthy adult and treated by anticoagulation method was subjected to a dextranhypotonic treatment to obtain leukocyte cells. The leukocyte cells were then subjected to a density gradient ultracentrifugation by Ficoll-Paque to obtain a neutrophilic leukocyte fraction.
O2^− generation was examined by the ferricytochrome C method in accordance with the method of B. N. Cronstein et al. [Journal of Experimental Medicine, vol. […] Each test compound was dissolved in dimethyl sulfoxide (DMSO); the solution was added to neutrophilic leukocytes before the addition of FMLP; then, the neutrophilic leukocytes were pre-incubated at 37° C.

[2] = Homo sapiens, Leukocyte, pH 7.4, Table 15, O2- generation, 3x10^-7 M FMLP, cytochalasin B, 37° C., pH 7.4

melting point | Compound | other results
192 to 192.8 °C | CCOc1ccc(-c2nc(-c3cccc(C(=O)O)c3)cs2)cc1OCC [Example 362, 2-(3,4-diethoxyphenyl)-4-(3-carboxyphenyl)thiazole] | –
178 to 179 °C | CCOc1ccc(-c2nc(-c3ccc(OC(C)=O)c(C(=O)O)c3)cs2)cc1OCC [Example 364, 2-(3,4-diethoxyphenyl)-4-(3-carboxy-4-acetyloxyphenyl)thiazole] | –
283 to 285 °C | CCOc1ccc(-c2nc(-c3ccc(S)cc3C(=O)O)cs2)cc1OCC [Example 355, 2-(3,4-diethoxyphenyl)-4-(4-mercapto-2-carboxyphenyl)-thiazole] | –
67 to 68 °C | CCCCCCCCCOC(=O)c1cc(-c2csc(-c3ccc(OCC)c(OCC)c3)n2)ccc1O [Example 461, 2-(3,4-diethoxyphenyl)-4-(3-nonyloxycarbonyl-4-hydroxyphenyl)thiazole] | –
123 to 124 °C | CCOc1ccc(-c2nc(Cn3cccc3C(C)=O)cs2)cc1OCC [Example 459, 2-(3,4-diethoxyphenyl)-4-(2-acetyl-1-pyrrolyl)methylthiazole] | –
233 to 234 °C | CCOc1ccc(-c2nc(-c3cc(C(=O)O)c(O)cc3O)cs2)cc1OCC [Example 360, 2-(3,4-diethoxyphenyl)-4-(3-carboxy-4,6-dihydroxyphenyl)thiazole] | –
260 to 261 °C | CCOc1ccc(-c2nc(-c3cc(C=CC(=O)O)c(O)c(C(=O)O)c3)cs2)cc1OCC [Example 514, 2-(3,4-diethoxyphenyl)-4-[3-carboxy-4-hydroxy-5-(2-carboxyvinyl)phenyl] thiazole] | –
113 to 114 °C | CCOc1ccc(-c2nc(-c3cc(CCO)c(O)c(C(=O)OC)c3)cs2)cc1OCC [Example 358, 2-(3,4-diethoxyphenyl)-4-[3-methoxycarbonyl-4-hydroxy-5-(2-hydroxyethyl)phenyl]-thiazole] | –
106 to 107 °C | CCOc1ccc(-c2nc(-c3cc4c(c(C(=O)O)c3)OC(C)(C)C4)cs2)cc1OCC [Example 465, 2-(3,4-diethoxyphenyl)-4-(2,2-dimethyl-7-carboxy-2,3-dihydrobenzofuran-5-yl)thiazole] | –
94 to 96 °C | CCOC(=O)C=Cc1cc(-c2csc(-c3ccc(OCC)c(OCC)c3)n2)cc(C(=O)OCOC)c1OCOC [Example 512, 2-(3,4-diethoxyphenyl)-4-[3-methoxymethoxycarbonyl-4-methoxymethoxy-5-(2-ethoxycarbonylvinyl)phenyl]thiazole] | –
112 to 113 °C | CCOc1ccc(-c2nc(-c3ccc(OS(=O)(=O)C(F)(F)F)c(C(=O)OC)c3)cs2)cc1OCC [Example 457, 2-(3,4-diethoxyphenyl)-4-(3-methoxycarbonyl-4-trifluoromethanesulfonyloxyphenyl) thiazole] | –
228 to 229 °C | CCOc1ccc(-c2nc(-c3ccc(N)c(C(=O)O)c3)cs2)cc1OCC [Example 359, 2-(3,4-diethoxyphenyl)-4-(3-carboxy-4-aminophenyl)thiazole] | –

More lines, now with the values behind:

Compound | melting point | other results
NC(=O)c1ccc(-c2nc(-c3ccc4c(c3)CCC(=O)N4)cs2)cc1 [Example 148, 2-(4-carbamoylphenyl)-4-(3,4-dihydrocarbostyril-6-yl)thiazole] | ≥ 300 °C | –
CCOc1ccc(-c2nc(-c3cccc(CN(C)C)n3)cs2)cc1OCC.Cl.Cl | 195 °C (dec.) | –
CCOc1ccc(-c2nc(-c3ccc(N4CCOCC4)c([N+](=O)[O-])c3)cs2)cc1OCC [Example 242, 4-(4-morpholino-3-nitrophenyl)-2-(-3,4-diethoxyphenyl) thiazole] | 119 to 120 °C | –
COc1ccc(-c2nc(-c3ccc(O)c(O)c3)cs2)cc1OC.Cl [Example 1, 2-(3,4-dimethoxyphenyl)-4-(3,4-dihydroxyphenyl) thiazole hydrochloride] | 146 to 148 °C | –
COc1ccc(C(=O)c2nc(-c3ccc4[nH]c(=O)c(O)c(O)c4c3)cs2)cc1OC [Example 152, 2-(3,4-dimethoxybenzoyl)-4-(3,4-dihydroxycarbostyril-6-yl) thiazole] | 249 to 251 °C | –
CCOc1ccc(-c2nc(C3=CCN(C)CC3)cs2)cc1OCC | 81.2 to 83.6 °C | –
CCOc1ccc(-c2nc(-c3ccc(NCCN4CCCCC4)c(C(=O)OC)c3)cs2)cc1OCC.Cl.Cl | 93 to 94 °C | –
COc1ccc(-c2nc(-c3ccc4c(c3)CCCN4)cs2)cc1OC.Cl | 156 to 158 °C | –
CCOc1ccc(-c2nc(-c3ccc(O[Si](C)(C)C(C)(C)C)c(CO)c3)cs2)cc1OCC | 101.3 to 103 °C | –
CCOc1ccc(-c2nc(-c3ccc(O[C@@H]4O[C@H](CO)[C@@H](O)[C@H](O)[C@H]4O)cc3)cs2)cc1OCC [Example 237, 4-[4-(β-D-glucopyranosyloxy)-phenyl]-2-(3,4-diethoxyphenyl)thiazole] | 138 to 140 °C | –
[O-][n+]1cccc(-c2nc(-c3ccccc3)cs2)c1 [Example 139, 3-(4-phenylthiazol-2-yl) pyridine-N-oxide] | 140 to 141 °C | –
O=c1[nH]cccc1-c1nc(-c2ccccc2)cs1 [Example 140, 2-(2-oxopyridin-3-yl)4-phenylthiazole] | 206 to 207 °C (dec.) | –
CCOc1ccc(C(=O)c2csc(-c3ccc(OCC)c(OCC)c3)n2)cc1OCC [Example 246, 2-(3,4-diethoxyphenyl)-4-(3,4-diethoxybenzoyl)thiazole] | 128 to 129 °C | –
COc1cc(-c2nc(-c3ccc4c(c3)CCC(=O)N4)cs2)ccc1S(C)(=O)=O [Example 150, 2-(3-methoxy-4-methylsulfonylphenyl)-4-(3,4-dihydrocarbostyril-6-yl)thiazole] | 284 to 286 °C | –
CCOc1ccc(-c2nc(-c3ccc(O)c(CC)c3)c(CN(C)C)s2)cc1OCC.Cl.Cl | 163 to 168 °C | –
COc1ccc(-c2nc(-c3cc(N)cc(N)c3)cs2)cc1OC.Cl.Cl | 198 to 200 °C | –

Compound | melting point | other results
CCOc1ccc(-c2nc(-c3ccc(SC(=O)N(C)C)c(C(=O)OC)c3)cs2)cc1OCC [Example 354, 2-(3,4-diethoxyphenyl)-4-(4-dimethylaminocarbonylthio-3-methoxycarbonylphenyl)thiazole] | 108 to 109 °C | –
COc1ccc(-c2nc(-c3ccc4oc(=O)[nH]c4c3)cs2)cc1OC [Example 145, 2-(3,4-dimethoxyphenyl)-4-(benzoxazol-2-on-5-yl) thiazole] | 271 to 272 °C | –
COc1ccc(-c2nc(-c3ccc4c(c3)CCC(=O)N4)co2)cc1OC [Example 137, 2-(3,4-dimethoxyphenyl)-4-(3,4-dihydrocarbostyril-6-yl) oxazole] | 191 to 192 °C | –
COc1ccc(-c2nc(-c3ccc4c(c3)CCCN4C(=O)c3ccccc3)cs2)cc1OC [Example 144, 2-(3,4-dimethoxyphenyl)-4-(1-benzoyl-1,2,3,4-tetrahydroquinolin-6-yl)thiazole] | 152.5 to 153.5 °C | –
CCOc1ccc(-c2nc(-c3cc(C(=O)OC)cc([N+](=O)[O-])c3O)cs2)cc1OCC [compound 101, 4-(3-Methoxycarbonyl-5-nitro-6-hydroxyphenyl)-2-(3,4-diethoxyphenyl)thiazole] | – | IC50 [1, 2]: 10 nM
C=CCc1cc(-c2csc(-c3ccc(OCC)c(OCC)c3)n2)cc(C(=O)OC)c1O [Example 353, 2-(3,4-diethoxyphenyl)-4-(3-methoxycarbonyl-4-hydroxy-5-allylphenyl)thiazole] | 118 to 119 °C | –
COc1ccc(-c2nc(-c3ccc(OS(=O)(=O)O)cc3)cs2)cc1OC [Example 238, 4-(4-hydroxysulfonyloxyphenyl)-2-(3,4-dimethoxyphenyl)thiazole] | 248 to 249 °C | –
COc1ccc(C(O)c2nc(-c3ccc4[nH]c(=O)c(O)c(O)c4c3)cs2)cc1OC (centres unmarked) [Example 151, 2-[1-(3,4-dimethoxyphenyl)-1-hydroxymethyl]-4-(3,4-dihydroxycarbostyril-6-yl)thiazole] | 188 to 189 °C | –
CCCCOC(=O)c1cc(-c2csc(-c3ccc(OCC)c(OCC)c3)n2)ccc1OCCCC [compound 136, 2-(3,4-Diethoxyphenyl)-4-(3-n-butoxycarbonyl-4-n-butoxyphenyl)thiazole] | – | IC50 [1, 2]: 130 nM
C=CCc1cc(-c2csc(-c3ccc(OCC)c(OCC)c3)n2)cc(C(=O)O)c1O [compound 83, 4-(3-Carboxy-4-hydroxy-5-allylphenyl)-2-(3,4-diethoxyphenyl)thiazole] | – | IC50 [1, 2]: 40 nM
CCOc1ccc(-c2nc(-c3ccc(O)c(C(=O)OC)c3)cs2)cc1OC [compound 86, 4-(3-Methoxycarbonyl-4-hydroxyphenyl)-2-(3-methoxy-4-ethoxyphenyl)thiazole] | – | IC50 [1, 2]: 33 nM
CCOc1ccc(-c2nc(-c3ccc(Cl)cc3)cs2)cc1OCC [compound 75, 4-(4-Chlorophenyl)-2-(3,4-diethoxyphenyl)thiazole] | – | IC50 [1, 2]: 600 nM
CCOc1ccc(-c2nc(-c3cc(C(=O)O)ccc3O)cs2)cc1OCC [compound 91, 4-(3-Carboxy-6-hydroxyphenyl)-2-(3,4-diethoxyphenyl)thiazole] | – | IC50 ([1]; Homo sapiens, Leukocyte, Table 16, comparative test present compounds vs prior art compounds, NE = not effective): 23 nM; IC50 [1, 2]: 23 nM
CCOc1ccc(-c2nc(-c3ccc(O[C@@H]4O[C@H](COC(C)=O)[C@@H](OC(C)=O)[C@H](OC(C)=O)[C@H]4OC(C)=O)cc3)cs2)cc1OCC [compound 78, 2-(3,4-Diethoxyphenyl)-4-[4-(2,3,4,6-tetra-0-acetyl-β-D-glucopyranosyloxy)phenyl]thiazole] | – | IC50 ([1]; Table 15, O2- generation, 3x10^-7 M FMLP, cytochalasin B, 37° C., pH 7.4): 1000 nM
CCOc1ccc(-c2nc(-c3ccc4c(c3)CCC(=O)N4)cs2)cc1OCC [compound 59, 2-(3,4-Diethoxyphenyl)-4-(3,4-dihydrocarbostyril-6-yl)thiazole] | – | IC50 [1, 2]: 80 nM
